# Reference: US20120065126A1, “Pharmaceutical Compositions Containing Antifungal Peptides” (BASF SE, priority 2009, published 2012)
# What was measured:
# M. furfur = assay: Long-term stability of P18 in shampoo base formulations (CFU); assay type: cell-based, Malassezia furfur; details: formulations 31-1-10, 31-3-5, 31-3-2 stored at 40° C.; 0, 12 and 22 days
# Description: The studies described hereinafter were conducted on the Malassezia furfur strain DSM 6170.
# The long-term stability of P18 peptide (H-KWKLFKKIPKFLHLAKKF-NH2; carboxyl terminus amidated) in shampoo base formulations was tested.
# The Texapon NSO and Tego Betain L7 components were mixed and dissolved. NaOH was used to adjust the pH to pH 6-7. Thereafter, a 100 mM aqueous solution of peptide P18 was prepared. The appropriate volume of the 100 mM P18 peptide solution was added to each of the formulations, such that the final concentrations of peptide P18 listed in Table 15 were obtained.
# The formulations were stored at 40° C.
# After 0; 12 and 22 days, the effect of the formulations on M. furfur was studied.
# The growth test was effected as follows: a shake culture containing M472 Pityrosporum medium was inoculated with M. furfur and incubated with shaking at 30° C. and 200 rpm overnight.
# A 96-well microtiter plate was filled with 100 μl per well of M472 Pityrosporum medium and inoculated with M. furfur suspension from the overnight culture. The M. furfur suspension was adjusted at the start of the experiment to an optical density, measured at 600 nm, of 0.1. […]
# After 24 hours, the colony forming units (CFU) were determined. For this purpose, 1 μl and 10 μl of each of the suspensions were streaked and, after incubation over the course of 6 days, the colonies were counted.
# M. furfur DSM 6170 = assay: Comparison of the efficacy of P18 and AFPP (CFU); assay type: cell-based, Malassezia furfur
# Text: WO 00/32220 describes the effect of the antifungal polypeptide AFPP from Aspergillus giganteus on the growth of Malassezia furfur.
# In order to compare the effect of P18 (SEQ ID NO. 3; sequence: KWKLFKKIPKFLHLAKKF-NH2 (Bachem. AG, Switzerland)) with the effect of AFPP, AFPP was provided from the culture supernatant of the A. giganteus strain CBS 526.65 (Organobalance, Berlin). The purification was effected according to Theis et al. (Theis T., Wedde M., Meyer V., Stahl U. (2003) The antifungal protein from Aspergillus giganteus causes membrane permeabilization. Antimicrob. Agents Chemother. 47:588-593; Theis T., Marx F., Salvenmoser W., Stahl U., Meyer V. (2005) New insights into the target site and mode of action of the antifungal protein (AFP) of Aspergillus giganteus. Res Microbiol. 156:47-56.)
# After replacing the buffer and concentration, a 2% (w/w) AFPP solution in phosphate buffer (10 mM sodium phosphate, pH 7.5, 100 mM NaCl) was obtained.
# The P18 concentrate was also present as a 2% (w/w) solution in phosphate buffer.
# Growth medium: M472 Pityrosporum medium according to DSMZ (German Collection of Microorganisms and Cell Cultures, Braunschweig, Germany) 40 g of malt extract (Becton, Dickinson and Company, Sparks, USA) 20 g of ox bile (Merck, Darmstadt, Germany)
# The growth test was effected as follows: a shake culture containing M472 Pityrosporum medium was inoculated with M. furfur DSM 6170 (DSMZ) and incubated with shaking at 30° C. and 200 rpm overnight.
# For each test mixture, a 1.5 ml reaction vessel was filled with Pityrosporum medium and inoculated with the M. furfur overnight culture to give a start OD of 0.1, measured at 600 nm.
# The growth of the following test mixtures was monitored: • M. furfur suspension and addition of 30 μl of phosphate buffer (in order to rule out any influence of the phosphate buffer on the effect of the active peptides at a final concentration of 0.1%) • M. furfur suspension and addition of 60 μl of phosphate buffer (in order to rule out any influence of the phosphate buffer on the effect of the active peptides at a final concentration of 0.2%) • M. furfur suspension and addition of 90 μl of phosphate buffer (in order to rule out any influence of the phosphate buffer on the effect of the active peptides at a final concentration of 0.3%) • M. furfur suspension with a final P18 concentration of 0.1% in the reaction volume • M. furfur suspension with a final P18 concentration of 0.2% in the reaction volume • M. furfur suspension with a final P18 concentration of 0.3% in the reaction volume • M. furfur suspension with a final AFPP concentration of 0.1% in the reaction volume • M. furfur suspension with a final AFPP concentration of 0.2% in the reaction volume • M. furfur suspension with a final AFPP concentration of 0.3% in the reaction volume
# The reaction volume was 600 μl in each case. The growth of M. furfur in the test mixtures was observed over a period of 24 hours. For this purpose, the mixtures were diluted 1:10 in M472 medium after 5 minutes, 20 minutes and 24 hours, and then 10 μl were plated out. The CFU (colony forming units) were determined by counting after incubation at 30° C. for 6 days.
# The experiments were effected in double determination and were independently repeated at least once.
# T. rubrum (DSM 21146) = assay: P18 in pharmaceutical base formulation (CFU); assay type: cell-based, Trichophyton rubrum; details: 10 000 ppm in the formulation, mixed 1:9 with suspension
# Description: The aim of the experiment was to study the effect of a pharmaceutical base formulation containing the P18 peptide ingredient (P18 sequence H-KWKLFKKIPKFLHLAKKF-NH2 (Bachem AG, Switzerland)) on further fungi and bacteria. For this purpose, the following base formulation was used: […]
# 1% hydroxycellulose 10% propylene glycol made up with water.
# Based on the base formulation, formulations containing 10 000 ppm of P18 peptide were prepared from a 20% concentrate solution.
# The effect of the formulations on S. epidermidis (DSM 1798), M. furfur (DSM 6170) and T. rubrum (DSM 21146) was studied.
# MEP growth medium according to DSMZ for T. rubrum 30 g of malt extract (Becton, Dickinson and Company, Sparks, USA) 3 g of soya peptone (Becton, Dickinson and Company, Sparks, USA) make up to 1 liter, set pH 5.6.
# For T. rubrum, an agar plate on which it had grown was rinsed with 5 ml of medium. 10 μl of the resulting suspension were added to 1 ml of MEP medium and used directly in the experiment.
# 1.5 ml reaction vessels were each filled with 1 ml of medium and inoculated with the fungal or bacterial suspension from the overnight culture such that the resulting suspensions at the start of the experiment had been adjusted to an optical density, measured at 600 nm, of 0.1. […] After incubation over 24 hours, the colonies on the plates were counted.
substance,measurement,setting,value
"H-KWKLFKKIPKFLHLAKKF-NH2 [P18, H-KWKLFKKIPKFLHLAKKF-NH2]",Long-term stability in shampoo base formulations,M. furfur,stable properties
same,Colony forming units after the incubation time specified,"M. furfur DSM 6170; 0.1%, 5 minutes",205 ± 192 CFU
same,Colony forming units after the incubation time specified,"M. furfur DSM 6170; 0.1%, 20 minutes",48 ± 56 CFU
same,Colony forming units after the incubation time specified,"M. furfur DSM 6170; 0.1%, 24 hours",0 CFU
same,Colony forming units after the incubation time specified,"M. furfur DSM 6170; 0.2%, 5 minutes",56 ± 52 CFU
same,Colony forming units after the incubation time specified,"M. furfur DSM 6170; 0.2%, 20 minutes",5 ± 4 CFU
same,Colony forming units after the incubation time specified,"M. furfur DSM 6170; 0.2%, 24 hours",0 CFU
same,Colony forming units after the incubation time specified,"M. furfur DSM 6170; 0.3%, 5 minutes",18 ± 19 CFU
same,Colony forming units after the incubation time specified,"M. furfur DSM 6170; 0.3%, 20 minutes",1 ± 0 CFU
same,Colony forming units after the incubation time specified,"M. furfur DSM 6170; 0.3%, 24 hours",0 CFU
same,Colony forming units after the incubation time specified,T. rubrum (DSM 21146); 5 minutes,25 ± 8 CFU
same,Colony forming units after the incubation time specified,T. rubrum (DSM 21146); 60 minutes,6 ± 1 CFU
